Columns and labels:
[1] = tested on: carrageenan-induced thermal hyperalgesia; assay: rat carrageenan-induced inflammatory pain model (thermal hyperalgesia, hind paw withdrawal latency); format: in vivo, Male Wistar rats; conditions: for effect on induced hyperalgesia (withdrawal latency of ipsilateral, carrageenan-injected hind paw): 1 hour after administration
Experimental: Anti-migraine agents are commonly evaluated using the carrageenan-induced thermal hyperalgesia model (Bingham et al, Experimental Neurology, 167:65-73 (2001); Daher et al, Life Sciences, 76:2349-2359 (2005)).
Male Wistar rats (5/group) were used for the experiment. Withdrawal latency to escape from heat noxious stimuli on both hind paws of the rats was measured using TAIL FLICK 7360 (Ugo Basile, Italy). 1% Carageenan was injected into the right hind paw footpat of the rats. […] The withdrawal latency from heat stimuli of both hind paws of rats was measured 1, 3 and 5 hours after drug administration.
The effect of carrageenan was observed during all of the experiment period.

[2] = two hours after infusion; patients; cited from earlier work

| SMILES | effect on induced hyperalgesia (withdrawal latency of ipsilateral, carrageenan-injected hind paw) ([1]; 3 mg/kg orally, FIG. 1) | effect on induced hyperalgesia (withdrawal latency of ipsilateral, carrageenan-injected hind paw) ([1]; 6 mg/kg orally, FIG. 1) | course of the anti-hyperalgesic effect (ipsilateral hind paw) ([1]; 3 and 6 mg/kg orally, 3 and 5 hours after administration, FIG. 1) | withdrawal latency of contralateral hind paw ([1]; orally, contralateral (left) hind paw, FIG. 2) | effect on motor function (suggested from unchanged contralateral latency) ([1]; rats, orally, FIG. 2) | efficacy rate for a sustained response [2] |
| --- | --- | --- | --- | --- | --- | --- |
| N#Cc1ccccc1-c1cc(-c2ccccn2)cn(-c2ccccc2)c1=O [Compound A, 2-(2-oxo-1-phenyl-5-pyridin-2-yl-1,2-dihydropyridin-3-yl)benzonitrile] | inhibited induced hyperalgesia | inhibited induced hyperalgesia | declined | did not change the latency | did not affect motor function | – |
| CNS(=O)(=O)Cc1ccc2[nH]cc(CCN(C)C)c2c1 [sumatriptan] | – | – | – | – | – | 87% |
| O=C(O)[C@@H]1C[C@H]2C[C@@H](CCc3nn[nH]n3)CC[C@H]2CN1 [LY293558] | – | – | – | – | – | 69% |

— US20060276510A1, “Dihydropyridine compounds and compositions for headaches” (priority 2005, published 2006)
